Data published in ChEMBL document CHEMBL1201862, “PubChem BioAssay data set” (2004).
Activity calls are given as the source filed them.

Columns and labels:
[1] = biological target: T1, Protein RecA (Mycobacterium tuberculosis, UniProt P9WHJ3); experiment: Fluorescence Cell-Free Homogeneous Dose Retest to Identify Inhibitors of RecA-Intein Splicing Activity. [Related pubchem assays (depositor defined):AID2097, AID2223, AID489010, AID492950]; assay type: functional
T1 sequence (P9WHJ3 whole entry): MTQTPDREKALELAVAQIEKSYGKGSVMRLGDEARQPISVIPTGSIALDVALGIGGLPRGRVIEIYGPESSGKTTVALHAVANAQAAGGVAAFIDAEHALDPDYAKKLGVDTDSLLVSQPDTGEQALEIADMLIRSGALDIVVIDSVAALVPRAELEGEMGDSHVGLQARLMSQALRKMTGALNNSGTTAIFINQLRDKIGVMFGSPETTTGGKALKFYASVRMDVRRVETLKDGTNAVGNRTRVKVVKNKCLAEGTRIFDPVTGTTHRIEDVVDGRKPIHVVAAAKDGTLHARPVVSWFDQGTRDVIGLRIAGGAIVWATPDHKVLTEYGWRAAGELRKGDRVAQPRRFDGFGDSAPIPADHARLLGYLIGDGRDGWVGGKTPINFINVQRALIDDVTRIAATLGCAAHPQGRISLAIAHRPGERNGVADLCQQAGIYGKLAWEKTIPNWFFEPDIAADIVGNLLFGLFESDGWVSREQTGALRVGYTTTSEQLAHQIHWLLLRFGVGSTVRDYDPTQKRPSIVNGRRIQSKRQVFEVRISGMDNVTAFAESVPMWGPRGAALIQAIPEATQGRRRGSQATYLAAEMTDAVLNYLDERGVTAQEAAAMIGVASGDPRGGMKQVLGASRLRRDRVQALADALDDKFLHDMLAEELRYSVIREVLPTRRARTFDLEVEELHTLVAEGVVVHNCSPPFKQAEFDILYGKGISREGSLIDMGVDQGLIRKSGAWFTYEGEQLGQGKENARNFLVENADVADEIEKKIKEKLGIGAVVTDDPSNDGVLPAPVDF

[2] = biological target: T2, Replicative DNA helicase DnaB (Mycobacterium tuberculosis, UniProt P9WMR3); experiment: DnaB intein splicing inhibitors, dose response, biochemical, cell-free fluorescence (AID 449749); assay type: functional
T2 sequence (P9WMR3 whole entry): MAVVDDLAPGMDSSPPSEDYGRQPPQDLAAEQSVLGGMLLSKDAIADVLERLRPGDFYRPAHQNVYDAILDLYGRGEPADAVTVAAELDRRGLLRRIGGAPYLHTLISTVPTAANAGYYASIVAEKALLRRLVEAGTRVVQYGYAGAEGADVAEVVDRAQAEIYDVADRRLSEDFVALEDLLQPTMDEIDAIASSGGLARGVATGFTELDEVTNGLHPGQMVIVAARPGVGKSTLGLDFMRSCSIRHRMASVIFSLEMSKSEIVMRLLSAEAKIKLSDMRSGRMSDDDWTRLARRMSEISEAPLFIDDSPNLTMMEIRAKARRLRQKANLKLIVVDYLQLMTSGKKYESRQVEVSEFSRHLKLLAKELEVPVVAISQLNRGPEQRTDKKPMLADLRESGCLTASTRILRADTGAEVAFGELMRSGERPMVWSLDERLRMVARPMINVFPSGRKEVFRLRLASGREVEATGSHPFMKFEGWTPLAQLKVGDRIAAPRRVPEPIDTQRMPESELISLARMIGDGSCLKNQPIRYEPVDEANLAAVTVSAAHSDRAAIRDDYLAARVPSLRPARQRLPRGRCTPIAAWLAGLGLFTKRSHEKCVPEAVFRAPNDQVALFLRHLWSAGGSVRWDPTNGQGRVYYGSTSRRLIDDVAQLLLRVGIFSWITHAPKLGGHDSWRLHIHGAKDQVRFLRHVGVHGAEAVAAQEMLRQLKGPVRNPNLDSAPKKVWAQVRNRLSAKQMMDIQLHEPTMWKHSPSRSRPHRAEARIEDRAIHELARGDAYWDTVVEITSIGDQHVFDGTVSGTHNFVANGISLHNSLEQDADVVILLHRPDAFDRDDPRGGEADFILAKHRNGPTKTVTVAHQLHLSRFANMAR

[3] = tested on: Vero; experiment: cells; assay type: functional; conditions: Chlorocebus sabaeus
[4] = biological target: T3, High affinity choline transporter 1 (Homo sapiens, UniProt Q9GZV3); experiment: CHT inhibitors, dose response, cell-based, 10-point CRC, membrane potential dye (AID 588401); assay type: functional;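 further: membrane potential dye fluorescence of choline-evoked depolarization via CHT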
T3 sequence (Q9GZV3 whole entry): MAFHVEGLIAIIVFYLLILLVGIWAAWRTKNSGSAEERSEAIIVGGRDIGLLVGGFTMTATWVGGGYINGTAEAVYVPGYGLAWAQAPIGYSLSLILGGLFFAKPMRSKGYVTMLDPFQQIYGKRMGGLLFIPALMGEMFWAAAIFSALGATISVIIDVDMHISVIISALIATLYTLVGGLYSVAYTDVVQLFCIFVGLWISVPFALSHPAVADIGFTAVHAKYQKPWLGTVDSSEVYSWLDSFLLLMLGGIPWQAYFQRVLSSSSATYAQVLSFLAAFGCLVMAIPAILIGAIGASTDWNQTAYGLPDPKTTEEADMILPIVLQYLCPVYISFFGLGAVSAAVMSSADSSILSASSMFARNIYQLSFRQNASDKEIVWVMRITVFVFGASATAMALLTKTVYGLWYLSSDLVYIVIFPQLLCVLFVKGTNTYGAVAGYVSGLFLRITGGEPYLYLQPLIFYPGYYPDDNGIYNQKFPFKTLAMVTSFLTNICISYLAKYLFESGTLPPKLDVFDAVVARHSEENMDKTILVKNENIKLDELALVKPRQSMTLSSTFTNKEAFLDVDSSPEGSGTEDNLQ

[5] = biological target: T3, High affinity choline transporter 1; experiment: CHT inhibitors, dose response, cell-based, 5-point CRC, membrane potential dye (AID 504840); assay type: functional
[6] = HepG2 cell cytotoxicity, dose response, cytotoxicity control for Shn3 inhibitor project, CellTiter-Glo, cherry-picked (AID 624134); assay type: functional, cell-based
[7] = control 3'UTR Renilla luciferase suppression, dose response, counter-screen for Shn3 inhibitor project, cell-based, Clone20-Shn3RL, cherry-picked (AID 624133); assay type: functional
[8] = Shn3 3'UTR reporter inhibitors, dose response, cell-based, Clone20 osteoblasts, firefly luciferase, cherry-picked (AID 624132); assay type: functional;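 further: firefly luciferase luminescence from reporter carrying the Shn3 3'UTR in osteoblasts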
[9] = biological target: Melanin-concentrating hormone receptor 1 (Homo sapiens, UniProt Q99705); experiment: Late-stage fluorescence-based counterscreen for antagonists of the G-protein coupled receptor 7 (GPR7): cell-based dose response assay to identify antagonists of the melanin-concentrating hormone receptor 1 (MCHR1) Set 6.; assay type: functional
Chain of Melanin-concentrating hormone receptor 1 (Q99705 whole entry): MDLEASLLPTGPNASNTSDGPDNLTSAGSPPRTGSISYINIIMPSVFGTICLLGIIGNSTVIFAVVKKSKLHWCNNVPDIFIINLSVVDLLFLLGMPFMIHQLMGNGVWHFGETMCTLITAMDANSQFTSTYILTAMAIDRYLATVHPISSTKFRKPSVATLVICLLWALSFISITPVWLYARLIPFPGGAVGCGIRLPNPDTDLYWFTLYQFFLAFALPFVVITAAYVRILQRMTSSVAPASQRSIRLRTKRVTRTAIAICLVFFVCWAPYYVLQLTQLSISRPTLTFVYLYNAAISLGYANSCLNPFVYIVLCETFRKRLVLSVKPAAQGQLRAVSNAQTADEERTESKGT

[10] = biological target: T4, Neuropeptides B/W receptor type 1 (Homo sapiens, UniProt P48145); experiment: GPR7 antagonist potency, late-stage follow-up, cell-based, fluorescence, dose response, set 6 (AID 588583); assay type: functional
T4 sequence (P48145 whole entry): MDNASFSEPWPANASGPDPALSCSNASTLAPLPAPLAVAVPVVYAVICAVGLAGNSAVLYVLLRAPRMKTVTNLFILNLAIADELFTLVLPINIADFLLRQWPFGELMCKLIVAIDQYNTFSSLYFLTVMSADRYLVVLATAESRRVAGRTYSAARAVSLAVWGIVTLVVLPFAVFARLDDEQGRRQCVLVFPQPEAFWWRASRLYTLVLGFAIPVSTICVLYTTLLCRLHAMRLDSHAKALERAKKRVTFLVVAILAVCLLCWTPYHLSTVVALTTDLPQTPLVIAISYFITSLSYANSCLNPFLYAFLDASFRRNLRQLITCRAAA

Compound | EC50 [1] | AC50 [2] | CC50 [3] | IC50 [4] | IC50 [5] | AC50 [6] | AC50 [7] | AC50 [8] | IC50 [9] | IC50 [10]
Cc1nnc(NC(=O)c2nc(S(=O)(=O)Cc3ccccc3)ncc2Cl)s1 | 4.01 µM (active) | 17.8 µM (active) | 17.8 µM (active) | 4.47 µM (active) | 7.31 µM (active) | > 70 µM (inactive) | 12.8 µM (active) | 1.34 µM (active) |  | 
O=c1c(-c2cccc(F)c2)c(Br)cnn1Cc1cccc2ccccc12 |  |  |  |  |  |  |  |  | 0.533 µM (active) | 0.533 µM (active)
